Source: US9340590B2 (priority 2011, dated 2016)
Where two headings read alike, the source gives them in different places. Positions of bridges follow the written chain, without caps; N, C: chain ends. Non-standard residues stand in square brackets, D forms with d. Residues, ends and D or L forms follow the SMILES beside them. Gly(octyl) = CCCCCCCC[C@H](N)C(=O)O; Gly(cPent) = N[C@H](C(=O)O)C1CCCC1; 3Pal = N[C@@H](Cc1cccnc1)C(=O)O; 2Thi = N[C@@H](Cc1cccs1)C(=O)O; Tle = CC(C)(C)[C@H](N)C(=O)O; hLeu = CC(C)CC[C@H](N)C(=O)O

Assays:
Test in all cases: cell-based
[1] = biological target: hNav1.7 (Homo sapiens, UniProt Q15858); type: cell-based; conditions: IonWorks Quattro, hNav1.7, read-out: IWQ Use Nav1.7
[2] = biological target: hNav1.5 (Homo sapiens, UniProt Q14524); conditions: IonWorks Quattro, hNav1.5, read-out: IWQ Use Nav1.5
[3] = biological target: hNav1.3 (Homo sapiens, UniProt Q9NY46); conditions: IonWorks Quattro, hNav1.3, read-out: IWQ Use Nav1.3
Sequence of hNav1.3 (Q9NY46 whole entry, looked up): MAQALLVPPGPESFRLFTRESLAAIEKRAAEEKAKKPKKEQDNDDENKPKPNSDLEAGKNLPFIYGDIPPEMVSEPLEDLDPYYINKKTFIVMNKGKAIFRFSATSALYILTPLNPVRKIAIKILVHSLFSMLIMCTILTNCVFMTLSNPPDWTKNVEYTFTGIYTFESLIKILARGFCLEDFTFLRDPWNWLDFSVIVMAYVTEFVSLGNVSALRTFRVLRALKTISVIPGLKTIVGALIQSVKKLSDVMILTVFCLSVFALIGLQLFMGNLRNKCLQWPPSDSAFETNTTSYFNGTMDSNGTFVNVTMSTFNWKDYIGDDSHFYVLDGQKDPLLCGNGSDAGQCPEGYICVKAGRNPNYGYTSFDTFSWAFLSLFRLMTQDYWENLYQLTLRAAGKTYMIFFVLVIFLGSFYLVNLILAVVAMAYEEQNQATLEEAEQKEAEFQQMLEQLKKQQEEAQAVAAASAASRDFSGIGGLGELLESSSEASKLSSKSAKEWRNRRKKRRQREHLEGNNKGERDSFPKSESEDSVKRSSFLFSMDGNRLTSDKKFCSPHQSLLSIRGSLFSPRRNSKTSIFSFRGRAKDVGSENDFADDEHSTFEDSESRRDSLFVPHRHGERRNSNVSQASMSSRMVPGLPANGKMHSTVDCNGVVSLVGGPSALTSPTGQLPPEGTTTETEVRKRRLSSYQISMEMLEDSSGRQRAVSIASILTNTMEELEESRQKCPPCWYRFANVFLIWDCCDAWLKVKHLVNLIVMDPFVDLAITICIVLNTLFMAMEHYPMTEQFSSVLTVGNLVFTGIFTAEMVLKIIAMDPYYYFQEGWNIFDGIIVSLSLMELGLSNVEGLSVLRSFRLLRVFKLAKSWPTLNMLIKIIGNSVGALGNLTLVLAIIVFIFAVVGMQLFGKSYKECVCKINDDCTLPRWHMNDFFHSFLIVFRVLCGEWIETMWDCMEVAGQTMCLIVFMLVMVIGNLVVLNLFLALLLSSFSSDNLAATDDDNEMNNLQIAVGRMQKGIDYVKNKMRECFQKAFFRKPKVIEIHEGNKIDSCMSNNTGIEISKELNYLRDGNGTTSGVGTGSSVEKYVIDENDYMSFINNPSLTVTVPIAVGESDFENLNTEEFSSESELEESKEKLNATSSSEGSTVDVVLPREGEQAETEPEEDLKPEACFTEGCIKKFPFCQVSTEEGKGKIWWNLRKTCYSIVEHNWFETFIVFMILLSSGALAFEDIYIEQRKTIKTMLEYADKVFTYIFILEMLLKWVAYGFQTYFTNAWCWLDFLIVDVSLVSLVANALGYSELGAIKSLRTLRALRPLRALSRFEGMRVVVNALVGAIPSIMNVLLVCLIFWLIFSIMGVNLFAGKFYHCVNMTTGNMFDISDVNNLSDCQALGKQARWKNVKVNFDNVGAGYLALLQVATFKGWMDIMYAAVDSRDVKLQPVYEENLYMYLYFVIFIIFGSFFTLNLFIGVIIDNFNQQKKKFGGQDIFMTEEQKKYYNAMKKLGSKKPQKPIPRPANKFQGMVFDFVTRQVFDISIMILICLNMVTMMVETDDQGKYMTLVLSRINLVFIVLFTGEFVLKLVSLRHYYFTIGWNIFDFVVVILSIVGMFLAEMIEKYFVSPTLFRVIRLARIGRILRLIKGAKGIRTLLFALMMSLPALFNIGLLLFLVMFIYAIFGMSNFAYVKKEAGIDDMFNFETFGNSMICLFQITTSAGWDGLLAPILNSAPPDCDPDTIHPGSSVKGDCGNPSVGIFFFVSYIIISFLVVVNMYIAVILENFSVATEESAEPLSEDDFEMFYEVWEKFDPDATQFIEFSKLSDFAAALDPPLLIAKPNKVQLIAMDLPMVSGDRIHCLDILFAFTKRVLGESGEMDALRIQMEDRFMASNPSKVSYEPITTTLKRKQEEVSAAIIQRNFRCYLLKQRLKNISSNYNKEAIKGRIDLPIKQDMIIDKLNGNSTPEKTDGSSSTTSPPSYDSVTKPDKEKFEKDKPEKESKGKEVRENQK

Sequence of hNav1.7 (Q15858 whole entry, looked up): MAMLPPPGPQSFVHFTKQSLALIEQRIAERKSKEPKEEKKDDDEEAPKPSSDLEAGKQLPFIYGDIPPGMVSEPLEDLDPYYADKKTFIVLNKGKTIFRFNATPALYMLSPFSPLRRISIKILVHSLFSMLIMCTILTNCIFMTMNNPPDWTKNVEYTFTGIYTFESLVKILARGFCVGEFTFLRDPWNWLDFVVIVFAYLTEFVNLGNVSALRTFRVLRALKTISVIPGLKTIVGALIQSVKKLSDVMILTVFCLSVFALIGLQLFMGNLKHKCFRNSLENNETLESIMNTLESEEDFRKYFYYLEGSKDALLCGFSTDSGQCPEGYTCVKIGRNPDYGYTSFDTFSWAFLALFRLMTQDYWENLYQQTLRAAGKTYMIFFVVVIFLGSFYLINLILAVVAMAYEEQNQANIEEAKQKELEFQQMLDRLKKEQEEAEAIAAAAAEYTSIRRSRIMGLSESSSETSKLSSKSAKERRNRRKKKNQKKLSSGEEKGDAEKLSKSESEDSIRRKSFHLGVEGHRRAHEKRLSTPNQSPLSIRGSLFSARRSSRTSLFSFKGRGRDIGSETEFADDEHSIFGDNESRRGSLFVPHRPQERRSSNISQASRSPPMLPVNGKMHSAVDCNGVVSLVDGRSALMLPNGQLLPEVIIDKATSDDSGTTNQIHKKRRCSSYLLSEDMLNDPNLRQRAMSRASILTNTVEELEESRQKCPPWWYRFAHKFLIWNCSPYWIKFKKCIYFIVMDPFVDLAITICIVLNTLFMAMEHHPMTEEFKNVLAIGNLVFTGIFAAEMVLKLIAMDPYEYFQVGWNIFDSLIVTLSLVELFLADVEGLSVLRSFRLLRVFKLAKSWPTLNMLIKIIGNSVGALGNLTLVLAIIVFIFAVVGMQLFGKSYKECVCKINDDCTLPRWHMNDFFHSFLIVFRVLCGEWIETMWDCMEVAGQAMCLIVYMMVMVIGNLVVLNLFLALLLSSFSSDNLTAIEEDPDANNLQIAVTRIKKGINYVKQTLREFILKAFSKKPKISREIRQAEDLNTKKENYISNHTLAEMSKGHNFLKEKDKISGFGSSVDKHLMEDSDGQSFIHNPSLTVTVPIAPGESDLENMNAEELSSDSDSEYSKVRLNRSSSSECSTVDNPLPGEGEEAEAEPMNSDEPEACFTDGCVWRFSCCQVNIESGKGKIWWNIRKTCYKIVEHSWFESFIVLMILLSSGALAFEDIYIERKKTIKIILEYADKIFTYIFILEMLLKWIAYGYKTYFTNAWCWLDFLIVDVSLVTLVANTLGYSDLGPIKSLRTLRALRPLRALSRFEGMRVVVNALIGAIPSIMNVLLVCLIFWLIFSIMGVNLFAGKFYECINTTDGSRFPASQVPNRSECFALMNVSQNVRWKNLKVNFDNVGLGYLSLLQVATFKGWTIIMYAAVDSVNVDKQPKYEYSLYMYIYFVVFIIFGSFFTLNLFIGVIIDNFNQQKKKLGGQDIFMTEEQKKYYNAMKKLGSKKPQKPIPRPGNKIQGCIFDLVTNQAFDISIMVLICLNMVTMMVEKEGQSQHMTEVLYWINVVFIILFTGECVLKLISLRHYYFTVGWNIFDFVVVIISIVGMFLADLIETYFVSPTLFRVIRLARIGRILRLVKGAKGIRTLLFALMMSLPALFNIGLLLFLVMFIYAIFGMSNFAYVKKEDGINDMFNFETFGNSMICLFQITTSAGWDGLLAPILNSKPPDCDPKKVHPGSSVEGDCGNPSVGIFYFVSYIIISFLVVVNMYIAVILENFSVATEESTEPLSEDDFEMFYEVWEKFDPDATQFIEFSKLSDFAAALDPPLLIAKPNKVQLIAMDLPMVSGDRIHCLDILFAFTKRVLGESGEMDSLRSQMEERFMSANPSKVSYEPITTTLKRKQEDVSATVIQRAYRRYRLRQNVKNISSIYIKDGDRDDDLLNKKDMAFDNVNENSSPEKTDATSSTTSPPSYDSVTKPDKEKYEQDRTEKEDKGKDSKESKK

CCCCCCCC[C@@H]1NC(=O)CNC(=O)[C@H](CC(C)C)NC(=O)[C@@H](NC(=O)[C@@H](N)CC(=O)O)CSSC[C@@H]2NC(=O)[C@@H]3CSSC[C@@H](C(=O)N[C@@H](CCCCN)C(=O)N[C@@H](Cc4ccc(O)cc4)C(=O)N[C@H](C(=O)N[C@@H](Cc4ccccc4)C(N)=O)C(C)C)NC(=O)[C@H](Cc4c[nH]c5ccccc45)NC(=O)[C@H](CCCCN)NC(=O)[C@H](Cc4c[nH]cn4)NC(=O)[C@H]([C@@H](C)O)NC(=O)[C@H](CCCNC(=N)N)NC(=O)[C@H](CO)NC(=O)[C@H](CSSC[C@H](NC(=O)[C@H](CCCCN)NC(=O)[C@H](CCCNC(=N)N)NC(=O)[C@H](Cc4ccccc4)NC1=O)C(=O)N[C@@H]([C@@H](C)CC)C(=O)N1CCC[C@H]1C(=O)N[C@@H](CC(=O)O)C(=O)N[C@@H](CC(N)=O)C(=O)N[C@@H](CC(=O)O)C(=O)N[C@@H](CCCCN)C(=O)N3)NC(=O)[C@H](C(C)C)NC(=O)[C@H](CC(C)C)NC(=O)[C@H](CC(N)=O)NC(=O)[C@@H]1CCCN1C(=O)[C@H](CCCNC(=N)N)NC2=O [compound 608] (H-DCLG[Gly(octyl)]FRKCIPDNDKCCRPNLVCSRTHKWCKYVF-NH2; disulfide 2-17, 9-23, 16-30)
IC50 ([1]; use-dependent block): 11300 nM | IC50 ([2]; use-dependent block): 20200 nM | IC50 ([3]; use-dependent block): 21800 nM

CC[C@H](C)[C@@H]1NC(=O)[C@@H]2CSSC[C@@H]3NC(=O)[C@H](C(C)C)NC(=O)[C@H](CC(C)C)NC(=O)[C@H](CC(N)=O)NC(=O)[C@@H]4CCCN4C(=O)[C@H](CCCNC(=N)N)NC(=O)[C@H](CSSC[C@H](NC(=O)[C@@H](N)CC(=O)O)C(=O)N[C@@H](CC(C)C)C(=O)NCC(=O)N[C@@H](C(C)(C)C)C(=O)N[C@@H](Cc4ccccc4)C(=O)N[C@@H](CCCNC(=N)N)C(=O)N[C@@H](CCCCN)C(=O)N2)NC(=O)[C@H](CSSC[C@@H](C(=O)N[C@@H](CCCCN)C(=O)N[C@@H](Cc2ccc(O)cc2)C(=O)N[C@H](C(=O)N[C@@H](Cc2ccccc2)C(N)=O)C(C)C)NC(=O)[C@H](Cc2c[nH]c4ccccc24)NC(=O)[C@H](CCCCN)NC(=O)[C@H](Cc2c[nH]cn2)NC(=O)[C@H]([C@@H](C)O)NC(=O)[C@H](CCCNC(=N)N)NC(=O)[C@H](CO)NC3=O)NC(=O)[C@H](CCCCN)NC(=O)[C@H](CC(=O)O)NC(=O)[C@H](CC(N)=O)NC(=O)[C@H](CC(=O)O)NC(=O)[C@@H]2CCCN2C1=O [compound 609] (H-DCLG[Tle]FRKCIPDNDKCCRPNLVCSRTHKWCKYVF-NH2; disulfide 2-17, 9-23, 16-30)
IC50 ([1]; use-dependent block): 81 nM | IC50 ([2]; use-dependent block): 6700 nM | IC50 ([3]; use-dependent block): 260 nM

CC[C@H](C)[C@@H]1NC(=O)[C@@H]2CSSC[C@@H]3NC(=O)[C@H](C(C)C)NC(=O)[C@H](CC(C)C)NC(=O)[C@H](CC(N)=O)NC(=O)[C@@H]4CCCN4C(=O)[C@H](CCCNC(=N)N)NC(=O)[C@H](CSSC[C@H](NC(=O)[C@@H](N)CC(=O)O)C(=O)N[C@@H](CC(C)C)C(=O)NCC(=O)N[C@@H](CCC(C)C)C(=O)N[C@@H](Cc4ccccc4)C(=O)N[C@@H](CCCNC(=N)N)C(=O)N[C@@H](CCCCN)C(=O)N2)NC(=O)[C@H](CSSC[C@@H](C(=O)N[C@@H](CCCCN)C(=O)N[C@@H](Cc2ccc(O)cc2)C(=O)N[C@H](C(=O)N[C@@H](Cc2ccccc2)C(N)=O)C(C)C)NC(=O)[C@H](Cc2c[nH]c4ccccc24)NC(=O)[C@H](CCCCN)NC(=O)[C@H](Cc2c[nH]cn2)NC(=O)[C@H]([C@@H](C)O)NC(=O)[C@H](CCCNC(=N)N)NC(=O)[C@H](CO)NC3=O)NC(=O)[C@H](CCCCN)NC(=O)[C@H](CC(=O)O)NC(=O)[C@H](CC(N)=O)NC(=O)[C@H](CC(=O)O)NC(=O)[C@@H]2CCCN2C1=O [compound 610] (H-DCLG[hLeu]FRKCIPDNDKCCRPNLVCSRTHKWCKYVF-NH2; disulfide 2-17, 9-23, 16-30)
IC50 ([1]; use-dependent block): 11 nM | IC50 ([2]; use-dependent block): 8200 nM | IC50 ([3]; use-dependent block): 41 nM

CC[C@H](C)[C@@H]1NC(=O)[C@@H]2CSSC[C@@H]3NC(=O)[C@H](C(C)C)NC(=O)[C@H](CC(C)C)NC(=O)[C@H](CC(N)=O)NC(=O)[C@@H]4CCCN4C(=O)[C@H](CCCNC(=N)N)NC(=O)[C@H](CSSC[C@H](NC(=O)[C@@H](N)CC(=O)O)C(=O)N[C@@H](CC(C)C)C(=O)NCC(=O)N[C@@H](CCSC)C(=O)N[C@@H](Cc4ccccc4)C(=O)N[C@@H](CCCNC(=N)N)C(=O)N[C@@H](CCCCN)C(=O)N2)NC(=O)[C@H](CSSC[C@@H](C(=O)N[C@@H](CCCCN)C(=O)N[C@@H](Cc2ccc(O)cc2)C(=O)N[C@H](C(=O)N[C@@H](Cc2ccccc2)C(N)=O)C(C)C)NC(=O)[C@H](Cc2c[nH]c4ccccc24)NC(=O)[C@H](CCCCN)NC(=O)[C@H](Cc2c[nH]cn2)NC(=O)[C@H]([C@@H](C)O)NC(=O)[C@H](CCCNC(=N)N)NC(=O)[C@H](CO)NC3=O)NC(=O)[C@H](CCCCN)NC(=O)[C@H](CC(=O)O)NC(=O)[C@H](CC(N)=O)NC(=O)[C@H](CC(=O)O)NC(=O)[C@@H]2CCCN2C1=O [compound 611] (H-DCLGMFRKCIPDNDKCCRPNLVCSRTHKWCKYVF-NH2; disulfide 2-17, 9-23, 16-30)
IC50 ([1]; use-dependent block): 43 nM | IC50 ([2]; use-dependent block): 13300 nM | IC50 ([3]; use-dependent block): 110 nM

CC[C@H](C)[C@@H]1NC(=O)[C@@H]2CSSC[C@@H]3NC(=O)[C@H](C(C)C)NC(=O)[C@H](CC(C)C)NC(=O)[C@H](CC(N)=O)NC(=O)[C@@H]4CCCN4C(=O)[C@H](CCCNC(=N)N)NC(=O)[C@H](CSSC[C@H](NC(=O)[C@@H](N)CC(=O)O)C(=O)N[C@@H](CC(C)C)C(=O)NCC(=O)N[C@@H](CC(C)C)C(=O)N[C@@H](Cc4ccccc4)C(=O)N[C@@H](CCCNC(=N)N)C(=O)N[C@@H](CCCCN)C(=O)N2)NC(=O)[C@H](CSSC[C@@H](C(=O)N[C@@H](CCCCN)C(=O)N[C@@H](Cc2ccc(O)cc2)C(=O)N[C@H](C(=O)N[C@@H](Cc2ccccc2)C(N)=O)C(C)C)NC(=O)[C@H](Cc2c[nH]c4ccccc24)NC(=O)[C@H](CCCCN)NC(=O)[C@H](Cc2c[nH]cn2)NC(=O)[C@H]([C@@H](C)O)NC(=O)[C@H](CCCNC(=N)N)NC(=O)[C@H](CO)NC3=O)NC(=O)[C@H](CCCCN)NC(=O)[C@H](CC(=O)O)NC(=O)[C@H](CC(N)=O)NC(=O)[C@H](CC(=O)O)NC(=O)[C@@H]2CCCN2C1=O [compound 612] (H-DCLGLFRKCIPDNDKCCRPNLVCSRTHKWCKYVF-NH2; disulfide 2-17, 9-23, 16-30)
IC50 ([1]; use-dependent block): 57 nM | IC50 ([2]; use-dependent block): 20100 nM | IC50 ([3]; use-dependent block): 220 nM

CC[C@H](C)[C@@H]1NC(=O)[C@@H]2CSSC[C@@H]3NC(=O)[C@H](C(C)C)NC(=O)[C@H](CC(C)C)NC(=O)[C@H](CC(N)=O)NC(=O)[C@@H]4CCCN4C(=O)[C@H](CCCNC(=N)N)NC(=O)[C@H](CSSC[C@H](NC(=O)[C@@H](N)CC(=O)O)C(=O)N[C@@H](CC(C)C)C(=O)NCC(=O)N[C@@H](Cc4cccnc4)C(=O)N[C@@H](Cc4ccccc4)C(=O)N[C@@H](CCCNC(=N)N)C(=O)N[C@@H](CCCCN)C(=O)N2)NC(=O)[C@H](CSSC[C@@H](C(=O)N[C@@H](CCCCN)C(=O)N[C@@H](Cc2ccc(O)cc2)C(=O)N[C@H](C(=O)N[C@@H](Cc2ccccc2)C(N)=O)C(C)C)NC(=O)[C@H](Cc2c[nH]c4ccccc24)NC(=O)[C@H](CCCCN)NC(=O)[C@H](Cc2c[nH]cn2)NC(=O)[C@H]([C@@H](C)O)NC(=O)[C@H](CCCNC(=N)N)NC(=O)[C@H](CO)NC3=O)NC(=O)[C@H](CCCCN)NC(=O)[C@H](CC(=O)O)NC(=O)[C@H](CC(N)=O)NC(=O)[C@H](CC(=O)O)NC(=O)[C@@H]2CCCN2C1=O [compound 613] (H-DCLG[3Pal]FRKCIPDNDKCCRPNLVCSRTHKWCKYVF-NH2; disulfide 2-17, 9-23, 16-30)
IC50 ([1]; use-dependent block): 950 nM | IC50 ([2]; use-dependent block): 18700 nM | IC50 ([3]; use-dependent block): 3600 nM

CC[C@H](C)[C@@H]1NC(=O)[C@@H]2CSSC[C@@H]3NC(=O)[C@H](C(C)C)NC(=O)[C@H](CC(C)C)NC(=O)[C@H](CC(N)=O)NC(=O)[C@@H]4CCCN4C(=O)[C@H](CCCNC(=N)N)NC(=O)[C@H](CSSC[C@H](NC(=O)[C@@H](N)CC(=O)O)C(=O)N[C@@H](CC(C)C)C(=O)NCC(=O)N[C@@H](Cc4cccs4)C(=O)N[C@@H](Cc4ccccc4)C(=O)N[C@@H](CCCNC(=N)N)C(=O)N[C@@H](CCCCN)C(=O)N2)NC(=O)[C@H](CSSC[C@@H](C(=O)N[C@@H](CCCCN)C(=O)N[C@@H](Cc2ccc(O)cc2)C(=O)N[C@H](C(=O)N[C@@H](Cc2ccccc2)C(N)=O)C(C)C)NC(=O)[C@H](Cc2c[nH]c4ccccc24)NC(=O)[C@H](CCCCN)NC(=O)[C@H](Cc2c[nH]cn2)NC(=O)[C@H]([C@@H](C)O)NC(=O)[C@H](CCCNC(=N)N)NC(=O)[C@H](CO)NC3=O)NC(=O)[C@H](CCCCN)NC(=O)[C@H](CC(=O)O)NC(=O)[C@H](CC(N)=O)NC(=O)[C@H](CC(=O)O)NC(=O)[C@@H]2CCCN2C1=O [compound 614] (H-DCLG[2Thi]FRKCIPDNDKCCRPNLVCSRTHKWCKYVF-NH2; disulfide 2-17, 9-23, 16-30)
IC50 ([1]; use-dependent block): 12 nM | IC50 ([2]; use-dependent block): 4100 nM | IC50 ([3]; use-dependent block): 77 nM

CC[C@H](C)[C@@H]1NC(=O)[C@@H]2CSSC[C@@H]3NC(=O)[C@H](C(C)C)NC(=O)[C@H](CC(C)C)NC(=O)[C@H](CC(N)=O)NC(=O)[C@@H]4CCCN4C(=O)[C@H](CCCNC(=N)N)NC(=O)[C@H](CSSC[C@H](NC(=O)[C@@H](N)CC(=O)O)C(=O)N[C@@H](CC(C)C)C(=O)NCC(=O)N[C@@H](C4CCCC4)C(=O)N[C@@H](Cc4ccccc4)C(=O)N[C@@H](CCCNC(=N)N)C(=O)N[C@@H](CCCCN)C(=O)N2)NC(=O)[C@H](CSSC[C@@H](C(=O)N[C@@H](CCCCN)C(=O)N[C@@H](Cc2ccc(O)cc2)C(=O)N[C@H](C(=O)N[C@@H](Cc2ccccc2)C(N)=O)C(C)C)NC(=O)[C@H](Cc2c[nH]c4ccccc24)NC(=O)[C@H](CCCCN)NC(=O)[C@H](Cc2c[nH]cn2)NC(=O)[C@H]([C@@H](C)O)NC(=O)[C@H](CCCNC(=N)N)NC(=O)[C@H](CO)NC3=O)NC(=O)[C@H](CCCCN)NC(=O)[C@H](CC(=O)O)NC(=O)[C@H](CC(N)=O)NC(=O)[C@H](CC(=O)O)NC(=O)[C@@H]2CCCN2C1=O [compound 615] (H-DCLG[Gly(cPent)]FRKCIPDNDKCCRPNLVCSRTHKWCKYVF-NH2; disulfide 2-17, 9-23, 16-30)
IC50 ([1]; use-dependent protocol): 35 nM | IC50 ([2]; use-dependent protocol): 5600 nM | IC50 ([3]; use-dependent protocol): 120 nM
